According to ChEMBL document CHEMBL3608214, “Optimization of Novel Antagonists to the Neurokinin-3 Receptor for the Treatment of Sex-Hormone Disorders (Part II)” (ACS Med Chem Lett, 2015):

Assays:
[1] = Distribution coefficient, log D of the compound at pH 7.4; assay type: physicochemical; settings: octanol/water
[2] = target: T1, Cytochrome P450 1A2 (Homo sapiens, UniProt P05177)
T1 sequence (P05177 whole entry): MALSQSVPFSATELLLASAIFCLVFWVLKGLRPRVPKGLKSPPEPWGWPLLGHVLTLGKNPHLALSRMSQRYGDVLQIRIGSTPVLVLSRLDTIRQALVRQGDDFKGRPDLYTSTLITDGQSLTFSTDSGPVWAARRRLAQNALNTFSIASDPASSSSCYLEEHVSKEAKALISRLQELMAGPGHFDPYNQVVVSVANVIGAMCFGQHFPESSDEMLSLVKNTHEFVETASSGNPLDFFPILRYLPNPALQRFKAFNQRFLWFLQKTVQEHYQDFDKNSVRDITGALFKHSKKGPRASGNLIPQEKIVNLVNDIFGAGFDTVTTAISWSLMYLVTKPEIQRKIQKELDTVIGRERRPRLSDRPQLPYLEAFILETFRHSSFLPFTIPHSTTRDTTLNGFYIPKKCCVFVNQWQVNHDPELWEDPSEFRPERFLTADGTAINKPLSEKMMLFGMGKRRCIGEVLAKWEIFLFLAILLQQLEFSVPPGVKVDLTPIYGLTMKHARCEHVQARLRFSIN
Description: Inhibition of CYP1A2 (unknown origin)

[3] = target: Cytochrome P450 3A4 (Homo sapiens, UniProt P08684)
Description: Inhibition of CYP3A4 (unknown origin)

[4] = target: Cytochrome P450 2D6 (Homo sapiens, UniProt P10635)
Description: Inhibition of CYP2D6 (unknown origin)

[5] = target: Cytochrome P450 2C9 (Homo sapiens, UniProt P11712)
Description: Inhibition of CYP2C9 (unknown origin)

[6] = target: Cytochrome P450 2C19 (Homo sapiens, UniProt P33261)
Description: Inhibition of CYP2C19 (unknown origin)

[7] = target: T2, Neuromedin-K receptor (Homo sapiens, UniProt P29371)
T2 sequence (P29371 whole entry): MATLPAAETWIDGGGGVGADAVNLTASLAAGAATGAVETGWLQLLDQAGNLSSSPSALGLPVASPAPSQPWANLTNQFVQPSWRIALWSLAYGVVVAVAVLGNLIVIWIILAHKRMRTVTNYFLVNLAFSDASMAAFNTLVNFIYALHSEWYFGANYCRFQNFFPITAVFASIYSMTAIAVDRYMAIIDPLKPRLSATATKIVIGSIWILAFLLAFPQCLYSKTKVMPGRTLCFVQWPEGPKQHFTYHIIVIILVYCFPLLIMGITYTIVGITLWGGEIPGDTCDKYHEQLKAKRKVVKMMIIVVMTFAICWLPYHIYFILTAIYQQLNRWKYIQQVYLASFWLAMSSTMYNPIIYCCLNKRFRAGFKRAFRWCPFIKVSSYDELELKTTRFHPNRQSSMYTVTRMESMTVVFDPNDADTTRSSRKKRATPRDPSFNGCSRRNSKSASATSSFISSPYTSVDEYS

[8] = target: T2, Neuromedin-K receptor; remark: listed apart in the source
[9] = system: Rattus norvegicus; assay: Inhibition of luteinizing hormone release in orally dosed rat; settings: po, read-out: MED
[10] = target: T3, Neuromedin-K receptor (Rattus norvegicus, UniProt P16177); assay: Binding affinity to rat NK3R
T3 sequence (P16177 whole entry): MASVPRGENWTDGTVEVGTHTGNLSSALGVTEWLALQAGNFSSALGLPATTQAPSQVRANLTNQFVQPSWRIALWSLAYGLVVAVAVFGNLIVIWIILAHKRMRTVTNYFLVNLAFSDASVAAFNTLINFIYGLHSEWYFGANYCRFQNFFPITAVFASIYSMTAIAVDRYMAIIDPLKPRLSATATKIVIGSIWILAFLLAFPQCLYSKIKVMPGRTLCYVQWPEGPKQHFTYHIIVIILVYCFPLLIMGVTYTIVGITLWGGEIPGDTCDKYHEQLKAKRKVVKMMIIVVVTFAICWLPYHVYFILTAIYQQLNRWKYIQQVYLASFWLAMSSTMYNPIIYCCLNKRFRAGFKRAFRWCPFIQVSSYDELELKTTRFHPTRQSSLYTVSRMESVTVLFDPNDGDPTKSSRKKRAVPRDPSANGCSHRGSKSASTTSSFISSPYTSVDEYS

[11] = Half life in rat at 1 mg/kg, iv; settings: in vivo
[12] = Volume of distribution at steady state in rat at 1 mg/kg, iv; settings: in vivo
[13] = Volume of distribution at steady state in monkey at 10 mg/kg, iv; settings: rhesus monkey, in vivo
[14] = Ratio of unbound drug concentration in brain to plasma of rat at 1 mg/kg after 60 mins
[15] = Binding affinity to monkey NK3R
[16] = Unbound fraction in monkey plasma at 5 mg/kg, po after 90 mins; settings: rhesus monkey
[17] = target: Voltage-gated inwardly rectifying potassium channel KCNH2 (Homo sapiens, UniProt Q12809)
[18] = system: Cynomolgus monkey; assay: Inhibition of luteinizing hormone release in orally dosed castrated cynomolgus monkey; settings: Macaca fascicularis, po, read-out: MED
[19] = Unbound fraction in rat brain at 1 mg/kg after 60 mins

Cytochrome P450 2C19, sequence (P33261 whole entry): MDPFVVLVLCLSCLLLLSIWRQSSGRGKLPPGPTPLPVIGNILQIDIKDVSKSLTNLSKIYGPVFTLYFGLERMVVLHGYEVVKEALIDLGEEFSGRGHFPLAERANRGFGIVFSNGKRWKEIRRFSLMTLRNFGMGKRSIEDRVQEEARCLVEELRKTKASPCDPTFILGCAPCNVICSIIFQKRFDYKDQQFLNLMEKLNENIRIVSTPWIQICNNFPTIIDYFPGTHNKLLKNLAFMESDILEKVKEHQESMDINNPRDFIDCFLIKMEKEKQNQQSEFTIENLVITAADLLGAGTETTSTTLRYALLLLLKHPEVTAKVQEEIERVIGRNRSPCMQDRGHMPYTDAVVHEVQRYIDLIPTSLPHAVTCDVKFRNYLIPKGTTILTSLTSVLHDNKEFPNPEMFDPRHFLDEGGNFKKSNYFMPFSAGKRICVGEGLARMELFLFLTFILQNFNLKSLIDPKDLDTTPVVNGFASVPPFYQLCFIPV
Cytochrome P450 2D6, sequence (P10635 whole entry): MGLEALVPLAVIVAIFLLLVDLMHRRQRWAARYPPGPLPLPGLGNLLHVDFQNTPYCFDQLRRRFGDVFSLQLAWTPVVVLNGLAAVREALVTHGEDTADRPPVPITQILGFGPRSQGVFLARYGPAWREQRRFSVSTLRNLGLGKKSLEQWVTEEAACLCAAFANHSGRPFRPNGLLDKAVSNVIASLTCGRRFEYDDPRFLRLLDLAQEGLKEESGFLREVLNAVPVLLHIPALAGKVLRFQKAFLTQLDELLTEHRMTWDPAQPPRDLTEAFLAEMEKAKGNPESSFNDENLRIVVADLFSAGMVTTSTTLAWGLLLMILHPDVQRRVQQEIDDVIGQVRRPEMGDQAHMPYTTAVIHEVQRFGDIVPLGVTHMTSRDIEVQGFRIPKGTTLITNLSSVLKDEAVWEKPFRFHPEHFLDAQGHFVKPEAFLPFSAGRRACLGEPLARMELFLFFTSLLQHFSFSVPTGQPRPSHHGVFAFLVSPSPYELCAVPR
Cytochrome P450 2C9, sequence (P11712 whole entry): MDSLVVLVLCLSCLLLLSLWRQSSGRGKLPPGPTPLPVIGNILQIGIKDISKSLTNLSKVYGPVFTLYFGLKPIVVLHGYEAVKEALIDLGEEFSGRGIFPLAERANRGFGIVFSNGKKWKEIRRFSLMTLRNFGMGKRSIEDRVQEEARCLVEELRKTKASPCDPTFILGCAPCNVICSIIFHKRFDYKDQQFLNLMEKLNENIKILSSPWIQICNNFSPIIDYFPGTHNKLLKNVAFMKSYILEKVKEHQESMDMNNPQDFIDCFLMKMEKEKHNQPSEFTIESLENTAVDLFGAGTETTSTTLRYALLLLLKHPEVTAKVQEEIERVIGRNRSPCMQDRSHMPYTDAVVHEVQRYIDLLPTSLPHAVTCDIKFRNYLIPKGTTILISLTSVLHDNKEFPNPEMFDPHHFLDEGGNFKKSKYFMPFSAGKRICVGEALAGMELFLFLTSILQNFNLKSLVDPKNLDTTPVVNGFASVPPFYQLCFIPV
Cytochrome P450 3A4, sequence (P08684 whole entry): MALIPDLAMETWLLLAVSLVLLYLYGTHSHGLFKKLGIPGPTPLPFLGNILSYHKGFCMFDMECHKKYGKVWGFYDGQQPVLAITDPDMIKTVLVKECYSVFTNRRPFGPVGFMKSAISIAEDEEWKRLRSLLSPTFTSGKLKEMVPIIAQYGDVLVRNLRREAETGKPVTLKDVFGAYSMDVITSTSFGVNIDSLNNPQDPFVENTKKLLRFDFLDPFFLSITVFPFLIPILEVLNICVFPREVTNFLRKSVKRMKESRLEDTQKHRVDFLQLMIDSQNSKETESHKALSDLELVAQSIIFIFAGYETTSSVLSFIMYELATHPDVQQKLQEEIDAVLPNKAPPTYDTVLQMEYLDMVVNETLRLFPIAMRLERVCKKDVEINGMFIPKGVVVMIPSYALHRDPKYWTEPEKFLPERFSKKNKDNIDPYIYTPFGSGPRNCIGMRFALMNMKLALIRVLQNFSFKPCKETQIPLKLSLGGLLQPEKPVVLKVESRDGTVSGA
Voltage-gated inwardly rectifying potassium channel KCNH2, sequence (Q12809 whole entry): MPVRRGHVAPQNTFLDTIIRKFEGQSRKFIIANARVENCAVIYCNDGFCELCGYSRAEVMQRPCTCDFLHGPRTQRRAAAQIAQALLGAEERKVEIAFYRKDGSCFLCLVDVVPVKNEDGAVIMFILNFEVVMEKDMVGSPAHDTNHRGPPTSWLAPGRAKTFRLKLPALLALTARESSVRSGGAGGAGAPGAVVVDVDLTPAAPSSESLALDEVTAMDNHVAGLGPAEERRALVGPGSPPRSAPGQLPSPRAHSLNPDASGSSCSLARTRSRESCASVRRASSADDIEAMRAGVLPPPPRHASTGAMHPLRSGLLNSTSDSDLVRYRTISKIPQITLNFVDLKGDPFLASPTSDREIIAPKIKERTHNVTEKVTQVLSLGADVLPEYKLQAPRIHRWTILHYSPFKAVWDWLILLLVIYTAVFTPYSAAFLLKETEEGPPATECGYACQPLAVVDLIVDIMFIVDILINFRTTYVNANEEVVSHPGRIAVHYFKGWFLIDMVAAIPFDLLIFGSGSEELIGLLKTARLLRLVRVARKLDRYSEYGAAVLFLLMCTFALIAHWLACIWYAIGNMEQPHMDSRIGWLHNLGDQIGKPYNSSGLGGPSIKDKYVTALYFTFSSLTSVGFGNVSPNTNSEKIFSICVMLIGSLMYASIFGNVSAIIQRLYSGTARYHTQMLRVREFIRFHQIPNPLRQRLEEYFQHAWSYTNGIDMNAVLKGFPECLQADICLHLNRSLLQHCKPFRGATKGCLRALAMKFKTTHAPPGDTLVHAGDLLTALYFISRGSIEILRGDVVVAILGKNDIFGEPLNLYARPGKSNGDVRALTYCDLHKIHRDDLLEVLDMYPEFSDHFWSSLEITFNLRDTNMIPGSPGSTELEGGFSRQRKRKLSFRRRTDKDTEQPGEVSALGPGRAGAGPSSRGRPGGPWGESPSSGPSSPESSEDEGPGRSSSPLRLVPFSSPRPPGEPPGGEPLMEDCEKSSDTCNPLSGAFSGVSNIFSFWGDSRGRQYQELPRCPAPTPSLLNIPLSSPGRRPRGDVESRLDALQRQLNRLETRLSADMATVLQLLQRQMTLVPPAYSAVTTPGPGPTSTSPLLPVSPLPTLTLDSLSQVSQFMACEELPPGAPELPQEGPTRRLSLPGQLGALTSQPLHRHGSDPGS

logD [1] | SMILES | Ki [7] | IC50 [8] | minimal effective dose [9] | Ki [10] | further results
 | Cc1nsc(-c2nnc3n2CCN(C(=O)c2ccc(Cl)cc2)[C@@H]3C)n1 | 20 nM | 31.6 nM |  |  | 
5 | C[C@@H]1c2nnc(-c3csc(-c4ccc(F)cc4F)n3)n2CCN1C(=O)c1ccc(-c2cccs2)cc1 |  |  |  |  | 
1.1 | C[C@@H]1c2nnc(-c3ncns3)n2CCN1C(=O)c1ccc(F)cc1 |  |  |  |  | 
 | Cc1nsc(-c2nnc3n2CCN(C(=O)c2ccc(F)cc2)C3)n1 | 100 nM | 158 nM | 30 mg/kg | 2030 nM | 
1.7 | CC(C)c1noc(-c2nnc3n2CCN(C(=O)c2ccc(F)cc2)[C@@H]3C)n1 | 25.1 nM | 39.8 nM |  |  | 
 | C[C@@H]1c2nnc(-c3nc(C(F)(F)F)ns3)n2CCN1C(=O)c1ccc(F)cc1 |  |  | 10 mg/kg | 85 nM | 
 | Cc1nsc(-c2nnc3n2CCN(C(=O)c2ccc(F)cc2)[C@@H]3CCO)n1 | 31.6 nM | 79.4 nM |  | 244 nM | 
 | Cc1nsc(-c2nnc3n2CCN(C(=O)c2ccc(F)cc2)[C@@H]3C)n1 [FEZOLINETANT] | 25.1 nM | 20 nM |  | 219 nM | half-life [11]: 4.65 h; Vd [12]: 0.6 L/kg
 | Cc1nsc(-c2nnc3n2CCN(C(=O)c2ccccc2)[C@@H]3C)n1 | 50.1 nM | 63.1 nM | 30 mg/kg | 573 nM | 
0.8 | Cc1nnc(-c2nnc3n2CCN(C(=O)c2ccc(F)cc2)[C@@H]3C)s1 |  |  |  |  | 
 | Cc1nc(-c2nnc3n2CCN(C(=O)c2ccc(-c4cccs4)cc2)[C@@H]3C)cs1 |  |  | 60 mg/kg |  | Vd [13]: 1.52 L/kg; logD ([1]; read-out: logD): 3.1; Kp uu at 1 h [14]: 0.14; Ki [15]: 20 nM; fraction unbound at […] [16]: 0.043; IC50 [17]: 24000 nM; minimal effective dose [18]: 20 mg/kg; fraction unbound at 1 h [19]: 0.028

SMILES | logD [1] | Ki [7] | IC50 [8] | minimal effective dose [9] | Ki [10] | further results
Cc1nsc(-c2nnc3n2CCN(C(=O)c2ccc(F)cc2)C3(C)C)n1 | 2 |  |  |  |  | IC50 [2]: 51000 nM; IC50 [3]: > 100000 nM; IC50 [4]: > 100000 nM; IC50 [5]: 12000 nM; IC50 [6]: 4000 nM
Cc1noc(-c2nnc3n2CCN(C(=O)c2ccc(F)cc2)[C@@H]3C)n1 | 0.7 | 126 nM |  |  |  | IC50 [2]: 86000 nM; IC50 [3]: > 100000 nM; IC50 [4]: > 100000 nM; IC50 [5]: 42000 nM; IC50 [6]: 34000 nM
